Bounds are passed on as bounds.

As usually defined, the IC50 is the concentration at which inhibition is half-maximal. Low readings indicate higher potency, high ones lower potency. The term Kd denotes the equilibrium constant for the complex coming apart. High values mean lower affinity, low ones higher affinity.

Assay [1] can be described thus: Inhibitory activity against ASV (avian sarcoma virus) integrase; Range 40-350 uM.
Assay [2] addresses T1, Human immunodeficiency virus type 1 integrase (Human immunodeficiency virus 1, UniProt Q7ZJM1).
Assay [3] addresses T1, Human immunodeficiency virus type 1 integrase. The source holds these as a separate data set.

T1 sequence (Q7ZJM1 whole entry): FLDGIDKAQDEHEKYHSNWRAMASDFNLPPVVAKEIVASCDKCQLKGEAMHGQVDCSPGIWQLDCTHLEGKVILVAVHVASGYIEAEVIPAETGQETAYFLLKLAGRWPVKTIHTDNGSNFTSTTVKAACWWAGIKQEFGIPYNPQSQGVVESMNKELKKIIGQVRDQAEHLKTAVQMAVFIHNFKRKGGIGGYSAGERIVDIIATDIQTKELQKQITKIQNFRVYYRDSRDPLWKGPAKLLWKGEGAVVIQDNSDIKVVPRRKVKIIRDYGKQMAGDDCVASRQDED

In assay [1], `CC(=O)Nc1cc(S(=O)(=O)O)cc2cc(S(=O)(=O)O)cc(O)c12` yielded an IC50 of less than 350 µM.

Compound `O=C1c2ccc(O)c(O)c2C(=O)c2c(O)ccc(O)c21` [QUINALIZARIN] yielded an IC50 in assay [2] of less than 17 µM. The compound also yielded a Kd in assay [3] of less than 15 µM.

The values are drawn from ChEMBL document CHEMBL1133500, “Active site binding modes of HIV-1 integrase inhibitors” (J Med Chem, 2000).
